Square brackets hold non-standard residues; d marks the D form. Peptide text beside a SMILES is read from it.
Assays:
[1] = Ocular pharmacokinetics after one eye drop, rats; type: in vivo, Wistar rats; settings: 3 hours post-dose
[2] = tested on: VEGF-induced retinal vascular permeability; type: in vivo, Wistar rats; settings: rats, single 0.5% eye drop at different times before intravitreal VEGF
[3] = Ocular pharmacokinetics after one eye drop, rabbits; type: in vivo, New Zealand white rabbits
[4] = NZ rabbits, single eyedrop of 0.5%, mean ± SEM, N = 3 eyes per timepoint, SEM
[5] = rabbits, single 0.5% eye drop, 24 hours

Concentration in the vitreous (molar) [1]: ~0.391 µM
AUC0-24h, Retina-Choroid [3, 4]: 467,434 ± 45,884 hours × ng g^-1
AUC0-24h, Vitreous [3, 4]: 1,678 ± 182 hours × ng mL^-1
Cmax, Retina-Choroid [3, 4]: 51,693.81 ± 6678.9 ng g^-1
Retina-choroid exposure at 24 hours above IC50 ([3]; rabbits, 24 hours, vs IC50 for endothelial permeability): > 4 orders of magnitude
Cmax in retina-choroid (molar) ([3]; rabbits, single 0.5% eye drop): ~67 µM
Retina/choroid Cmax above IC50 (137.3 pM) ([3]; rabbits, single 0.5% eye drop): 5 orders of magnitude
Cmax in retina-choroid ([3]; rabbits, single 0.5% eye drop (50 µL), HUVEC bioactivity read-out): 52 µg/g
Exposure in retina-choroid after 24 hours [3, 5]: 3.5 µg/g
Exposure in retina-choroid after 24 hours (molar) [3, 5]: ~4.64 µM
Exposure in vitreous after 24 hours [3, 5]: 10.6 ng/mL
Exposure in vitreous after 24 hours (molar) [3, 5]: ~13.88 nM
Time for which high retina-choroid levels lasted ([3]; rabbits, single topical instillation of 0.5%): 24 h
Structure (SMILES): CC[C@@H](C)[C@H]1NC(=O)[C@@H]([C@H](C)O)NC(=O)[C@@H](Cc2c[nH]cn2)NC(=O)CNC(=O)[C@@H](CCCNC(=N)N)NC(=O)CNC(=O)[C@@H](Cc2ccccc2)NC1=O [VIAN-c4551] (cyclo([dI][dF]G[dR]G[dH][dT]))
Duration of protective effect against VEGF challenge after the eye drop [2]: 24 h

Reference: paper doi:10.1101/2024.09.11.612517v1 (bioRxiv, 2024)
